For assay [1], the system named is islets from hIAPP+/− FVB/N mice. Nature of the assay: Alamar blue viability of islets isolated with or without Compound 1. The conditions noted are these: 20 μM Compound 1 during islet isolation, vs non-treated group; FIG. 1A. It counts as cell-based, mouse. The method, then:
(§1) Mouse islets were isolated from 10- to 12-week-old hIAPP^+/− and C57BL/6 mice as described previously. Briefly, 0.8 mg/mL of collagenase P (Roche, Indianapolis, IN, USA) in Hank's buffered saline solution (HBSS, Sigma-Aldrich, St. Louis, MO, USA) with or without 20 μM Compound 1 were infused into the common bile duct for mouse pancreas digestion. Islets were purified from the digested pancreas using a Ficoll (Biochrom, Berlin, Germany) gradient and washed several times with 1 xHBSS. Isolated islets were cultured while free-floating in 10 mL of RPMI 1640 (Gibco, Grand Island, NY, USA). The medium was supplemented with 10% heat-inactivated FBS (fetal bovine serum) at 37° C. and 5% CO2 incubation prior to the ex vivo and in vivo studies.
The viability of islets was evaluated using Alamar blue staining according to the manufacturer's protocol (Invitrogen, Grand Island, NY, USA). Briefly, islets isolated from hIAPP^+/− mice were cultured at a density of 100 islet equivalents (IE) per well in 24-well plates with RPMI 1640 containing 10% FBS and 0.625% BSA with or without Compound 1. […] The fluorescence intensity of each well was measured at 570/585 nm (excitation/emission) using a GloMax-Multi Plus Detection System (Promega, Fitchburg, WI, USA), and the values were normalized to a blank.

For assay [2], the system named is wild type C57BL/6 mouse islets. The experiment in a line: Effects of Compound 1 during isolation on wild type mouse islets (viability, function, cytokine expression). The class given is cell-based. The conditions noted are these: Compound 1 during islet isolation; FIG. 2. As to the method: as §1
The test system of another assay is RINm5F cells. Nature of the assay: Serum-deprived culture of RINm5F cells (viability, ROS). The class given is cell-based, rat. The settings on record: dose-dependent 0.1 μM to 20 μM. As to the method:
Islets were isolated from heterozygous human islet amyloid polypeptide transgenic (hIAPP^+/−)FVB/N mice (Jackson Laboratory, Bar Harbor, ME, USA), […] mice (Orientbio, Sungnam, Korea), and cynomolgus monkeys (Macaca fascicularis; Orientbio, Sungnam, Korea). For additional in vitro studies, rat insulinoma cells (RINm5F cells) were treated with or without Compound 1 during culture under tert-butyl hydroperoxide (tBHP) exposure or serum deprivation condition. RINm5F cells were suspended in DMEM medium (Gibco, Grand Island, NY, USA) containing 100 IU/mL penicillin and 100 μg/mL streptomycin, and cultured at 37° C. in a fully humidified 5% CO2 atmosphere. All experimental protocols in this study were approved by the Institutional Animal Care and Use Committee (IACUC) of Samsung Biomedical Research Institute.

For assay [3], the system named is STZ-induced diabetic hIAPP+/− FVB/N mice. Nature of the assay: Marginal mass islet transplantation after serum-deprived culture with or without Compound 1. The class given is in vivo, mouse. The method, then: (§2) A marginal mass renal subcapsular islet transplantation model was used to assess the in vivo islet function of hIAPP^+/− mice. To induce diabetes, 180 mg/kg of streptozotocin (STZ, Sigma-Aldrich) was administered to 8- to 10-week-old FVB/N mice. Mice were considered to have diabetes when two consecutive blood glucose level readings were higher than 300 mg/dL. Equal amounts (400 IEQ of islets per recipient) of islets isolated from hIAPP^+/− mice were allocated to the following two groups: culture medium supplemented with 0.625% BSA (BSA group) and 0.625% BSA plus Compound 1 (BSA+Compound 1 group) to evaluate the combined effect of Compound 1 on islet mass and function during ex vivo culture. After culture for 72 hours, islets were transplanted into the renal subscapular space of diabetic hIAPP^+/− mice. The IE number was calculated using the Ricordi algorithm by classifying islets according to their diameter. After islet transplantation, non-fasting blood glucose levels were measured three times a week for the first 2 weeks and twice a week for the last 2 weeks.
At 4 weeks after transplantation, the transplantation site on the kidney of mouse were removed and embedded in paraffin. Immunohistochemical staining is briefly explained in the following. After deparaffinization, 4-μm tissue sections were stained with the polyclonal guinea pig anti-insulin antibody (1:1000, A0546, DAKO, Denmark), glucacon (1:500, ab92517, abcam, United Kingdom) and amyloid (1:2500, #44-344, Invitrogen). Stained slides were observed using an Olympus BX40 light microscope (Olympus, Japan) with […] numeric aperture and ×40/0.75 numeric aperture objectives. Photographic images were collected with a digital camera (Olympus DP50) and analyzed using the Image-Pro Plus 5.1 software.
For quantification of the DAB-labeled β-cells, all slides were imaged at 10× on a Vectra 3.0 automated quantitative pathology imaging system and analyzed using inForm software (all from Perkin-Elmer, Waltham, MA, USA). The transplanted renal tissue sections were scanned for image acquisition and then to set the transplanted tissue segmentation, a number of representative regions of transplanted islet cells and regions to be excluded from the analysis such as renal tissues were examined by learn-by-example interface. For the β-cell segmentation, a spectral library was used to identify the hematoxylin-stained nuclei and the DAB-stained cytoplasm (β-cells) within the transplanted tissue. With these training sets, the algorithm for identifying only the DAB-stained cells in the transplanted tissue was verified. All the captured 10× images were analyzed, and the DAB-stained transplanted β-cells were counted.

In assay [4] the test system is islet grafts in STZ-induced diabetic hIAPP+/− FVB/N mice. The experiment in a line: Amyloid accumulation in islet grafts (thioflavin S staining). It counts as in vivo, mouse. The conditions noted are these: islets cultured 72 hours with Compound 1, vs control group; FIG. 7G. As to the method:
as §2, with “weeks. […]” for “weeks.”

With `O=S1(=O)CCN(Cc2cc(NC3CCOCC3)c3[nH]c(-c4ccccc4)cc3c2)CC1` [Compound 1], in assay [1], the “relative ex vivo cell viability assessed by Alamar blue assay” value is reported as “significantly increased”. The “reproduction of isolation results (viability, function, pro-inflammatory cytokine expression) in wild type islets” value in assay [2] is on record as “reproduced”. In the assay on RINm5F cells (serum deprivation, FIG. 4C), the relative cell viability entry is “significantly increased”. For the same compound, the “serum deprivation-induced ROS” value with RINm5F cells (serum-deprived culture, FIG. 4E) was “decreased”. Besides, the “insulin positive area in the grafted tissue” value in assay [3] (islets cultured 72 hours with Compound 1, vs control group, FIG. 7F) is reported as “greater”. Besides, the posttransplant glucose levels result in assay [3] (islets cultured 72 hours with Compound 1, vs control, FIG. 7B) is “significantly better”. The diabetes reversal rate entry in assay [3] (islets cultured 72 hours with Compound 1, vs control, FIG. 7C) is “significantly better”. In assay [3] (islets cultured 72 hours with Compound 1, vs control, FIG. 7D), the “glucose levels during IPGTT” value was “significantly better”. Also, the “AUC of glucose during IPGTT” value in assay [3] (islets cultured 72 hours with Compound 1, vs control, FIG. 7E) is “significantly better”. In assay [4], the “proportion of accumulation of amyloid in sections of islet grafts” value was “significantly reduced”.
